Assay results taken from article PMC3875168 (Journal of medicinal chemistry, 2013).

Assays:
[1] = Solubility of the inhibitor; type: physicochemical; settings: hydroxyl group at the benzylic position, compared with 12p
[2] = biological target: LAR (Homo sapiens, UniProt P10586); assay: Selectivity assay, pNPP substrate; type: biochemical; settings: relative to STEP Ki
[3] = biological target: T1, CD45 (Homo sapiens, UniProt P08575); assay: Selectivity assay, pNPP substrate; type: biochemical; settings: relative to STEP Ki
T1 sequence (P08575 26-1306): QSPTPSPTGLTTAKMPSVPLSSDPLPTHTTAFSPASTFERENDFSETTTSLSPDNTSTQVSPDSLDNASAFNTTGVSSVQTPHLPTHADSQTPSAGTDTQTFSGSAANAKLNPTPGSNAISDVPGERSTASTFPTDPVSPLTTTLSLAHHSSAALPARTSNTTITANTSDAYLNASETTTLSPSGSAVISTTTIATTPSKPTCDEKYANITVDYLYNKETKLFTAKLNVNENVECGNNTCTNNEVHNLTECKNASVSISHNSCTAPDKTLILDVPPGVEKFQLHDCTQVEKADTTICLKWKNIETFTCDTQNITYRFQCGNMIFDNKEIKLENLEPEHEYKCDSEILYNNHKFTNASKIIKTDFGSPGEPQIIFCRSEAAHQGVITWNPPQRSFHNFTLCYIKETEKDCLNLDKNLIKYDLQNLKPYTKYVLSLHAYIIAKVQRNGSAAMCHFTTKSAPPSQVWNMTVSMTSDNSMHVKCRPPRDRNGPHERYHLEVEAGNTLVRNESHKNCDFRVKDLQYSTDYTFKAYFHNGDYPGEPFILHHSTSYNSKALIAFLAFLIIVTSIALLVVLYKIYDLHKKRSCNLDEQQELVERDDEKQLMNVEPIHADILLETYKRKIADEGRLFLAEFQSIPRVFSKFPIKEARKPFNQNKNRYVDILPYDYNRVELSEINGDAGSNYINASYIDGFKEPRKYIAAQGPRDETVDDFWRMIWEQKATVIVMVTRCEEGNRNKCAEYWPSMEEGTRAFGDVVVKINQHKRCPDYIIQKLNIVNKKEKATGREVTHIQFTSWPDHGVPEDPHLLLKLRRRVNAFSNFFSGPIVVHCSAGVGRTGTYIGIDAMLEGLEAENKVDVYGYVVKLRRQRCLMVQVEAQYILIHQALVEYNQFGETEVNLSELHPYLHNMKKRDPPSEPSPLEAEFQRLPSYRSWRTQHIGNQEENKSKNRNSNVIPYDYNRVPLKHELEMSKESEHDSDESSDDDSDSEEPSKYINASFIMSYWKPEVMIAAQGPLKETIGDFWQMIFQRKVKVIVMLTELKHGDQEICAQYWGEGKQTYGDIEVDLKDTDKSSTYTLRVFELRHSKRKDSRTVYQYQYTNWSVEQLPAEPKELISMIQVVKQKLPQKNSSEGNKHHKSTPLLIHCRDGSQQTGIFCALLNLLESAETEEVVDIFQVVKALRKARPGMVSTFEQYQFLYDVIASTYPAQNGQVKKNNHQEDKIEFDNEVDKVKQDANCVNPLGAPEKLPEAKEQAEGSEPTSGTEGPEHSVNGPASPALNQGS

[4] = biological target: T2, MKP5 (Homo sapiens, UniProt Q9Y6W6); assay: Selectivity assay, DiFMUP substrate; type: biochemical; settings: relative to STEP Ki
T2 sequence (Q9Y6W6 1-482): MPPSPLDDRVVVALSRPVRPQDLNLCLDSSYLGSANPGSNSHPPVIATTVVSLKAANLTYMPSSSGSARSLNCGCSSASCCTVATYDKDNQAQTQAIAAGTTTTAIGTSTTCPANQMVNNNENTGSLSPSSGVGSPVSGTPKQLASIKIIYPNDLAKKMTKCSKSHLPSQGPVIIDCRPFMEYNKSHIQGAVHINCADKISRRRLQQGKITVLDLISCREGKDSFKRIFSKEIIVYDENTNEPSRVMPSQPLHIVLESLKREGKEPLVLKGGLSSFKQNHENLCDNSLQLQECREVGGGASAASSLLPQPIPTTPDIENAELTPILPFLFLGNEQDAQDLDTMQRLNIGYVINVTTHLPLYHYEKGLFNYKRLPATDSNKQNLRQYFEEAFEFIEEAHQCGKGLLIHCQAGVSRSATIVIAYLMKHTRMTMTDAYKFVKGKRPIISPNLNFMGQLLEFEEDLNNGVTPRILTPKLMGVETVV

[5] = biological target: T3, STEP (Rattus norvegicus, UniProt P35234); assay: STEP inhibition in neuronal cultures, Western blotting of phospho-substrates; type: cell-based; settings: rat cortical neurons, 0.1, 1 or 10 µM for 1 h
T3 sequence (P35234 53-369 limits assumed): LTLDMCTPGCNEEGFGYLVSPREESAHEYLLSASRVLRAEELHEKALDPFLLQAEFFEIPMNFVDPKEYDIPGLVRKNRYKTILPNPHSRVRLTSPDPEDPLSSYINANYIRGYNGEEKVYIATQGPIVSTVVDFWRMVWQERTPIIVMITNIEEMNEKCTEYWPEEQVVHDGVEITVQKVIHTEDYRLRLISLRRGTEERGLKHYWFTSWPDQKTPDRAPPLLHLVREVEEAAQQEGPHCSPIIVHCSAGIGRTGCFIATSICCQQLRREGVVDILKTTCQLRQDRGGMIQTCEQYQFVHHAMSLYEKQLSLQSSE

[6] = BBB PAMPA; type: in vitro ADME; settings: PAMPA model system; data in SI

LAR, sequence (P10586 30-1907): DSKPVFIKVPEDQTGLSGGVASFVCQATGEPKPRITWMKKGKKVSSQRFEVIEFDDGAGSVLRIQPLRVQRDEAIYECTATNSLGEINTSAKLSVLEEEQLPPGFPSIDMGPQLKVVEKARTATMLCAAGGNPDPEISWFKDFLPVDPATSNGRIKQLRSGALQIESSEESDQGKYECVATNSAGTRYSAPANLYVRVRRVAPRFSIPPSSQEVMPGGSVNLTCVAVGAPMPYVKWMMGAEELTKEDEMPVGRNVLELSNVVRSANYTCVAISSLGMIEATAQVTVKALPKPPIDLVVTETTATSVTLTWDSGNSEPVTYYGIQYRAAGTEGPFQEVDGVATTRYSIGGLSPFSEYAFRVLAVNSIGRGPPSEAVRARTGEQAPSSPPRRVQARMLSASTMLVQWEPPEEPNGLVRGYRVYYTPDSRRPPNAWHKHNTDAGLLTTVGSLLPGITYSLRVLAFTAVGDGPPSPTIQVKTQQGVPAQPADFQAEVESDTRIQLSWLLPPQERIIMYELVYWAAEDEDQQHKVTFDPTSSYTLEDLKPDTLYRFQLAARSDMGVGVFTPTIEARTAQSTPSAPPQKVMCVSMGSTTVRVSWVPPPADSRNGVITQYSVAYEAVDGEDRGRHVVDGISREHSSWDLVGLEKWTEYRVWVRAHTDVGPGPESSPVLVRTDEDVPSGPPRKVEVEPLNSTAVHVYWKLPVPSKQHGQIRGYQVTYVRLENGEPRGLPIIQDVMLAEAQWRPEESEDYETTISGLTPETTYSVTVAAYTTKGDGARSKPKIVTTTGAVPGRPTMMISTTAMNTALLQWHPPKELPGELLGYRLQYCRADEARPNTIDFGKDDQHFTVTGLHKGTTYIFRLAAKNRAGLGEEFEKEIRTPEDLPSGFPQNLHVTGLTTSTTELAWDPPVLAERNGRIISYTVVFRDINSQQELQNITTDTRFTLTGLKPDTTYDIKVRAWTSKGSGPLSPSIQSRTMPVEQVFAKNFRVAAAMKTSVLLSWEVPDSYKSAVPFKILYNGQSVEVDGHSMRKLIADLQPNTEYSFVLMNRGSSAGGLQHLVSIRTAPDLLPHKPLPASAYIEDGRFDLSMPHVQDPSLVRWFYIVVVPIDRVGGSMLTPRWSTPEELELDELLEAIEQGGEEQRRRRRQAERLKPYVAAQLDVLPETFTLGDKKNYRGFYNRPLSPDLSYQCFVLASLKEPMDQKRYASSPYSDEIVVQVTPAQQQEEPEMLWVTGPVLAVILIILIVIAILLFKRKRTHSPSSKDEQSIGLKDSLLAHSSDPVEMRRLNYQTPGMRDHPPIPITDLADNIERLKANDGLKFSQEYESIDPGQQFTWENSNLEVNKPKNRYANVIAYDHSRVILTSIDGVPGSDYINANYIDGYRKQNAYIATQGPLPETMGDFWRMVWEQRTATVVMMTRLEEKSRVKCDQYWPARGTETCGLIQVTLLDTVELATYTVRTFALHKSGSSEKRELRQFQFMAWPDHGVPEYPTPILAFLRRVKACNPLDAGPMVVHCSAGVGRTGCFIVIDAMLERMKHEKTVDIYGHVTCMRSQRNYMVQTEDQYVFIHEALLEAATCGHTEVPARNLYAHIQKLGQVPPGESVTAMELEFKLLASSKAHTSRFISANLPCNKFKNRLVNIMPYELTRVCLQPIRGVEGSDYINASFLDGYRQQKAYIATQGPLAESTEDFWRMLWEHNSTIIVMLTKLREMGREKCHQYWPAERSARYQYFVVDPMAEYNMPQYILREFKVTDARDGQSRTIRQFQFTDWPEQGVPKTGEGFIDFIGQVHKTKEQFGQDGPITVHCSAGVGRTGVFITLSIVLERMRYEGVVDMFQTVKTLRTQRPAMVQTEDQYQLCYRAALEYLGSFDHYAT

Structure (SMILES): O=P(O)(O)C(F)(F)c1ccc(-c2cccc(C(O)c3ccc(Cl)c(Cl)c3)c2)cc1 (stereo not shown) [12q, ((3'-((3,4-Dichlorophenyl)(hydroxy)methyl)-[1,1'-biphenyl]-4-yl)difluoromethyl)phosphonic Acid]
- solubility of the inhibitor [1]: increased the solubility

Structure (SMILES): O=P(O)(O)C(F)(F)c1cccc(-c2cccc(C3CCCCC3)c2O)c1 [11m, ((3'-Cyclohexyl-2'-hydroxy-[1,1'-biphenyl]-3-yl)difluoromethyl)phosphonic Acid]
- selectivity LAR [2]: >45
- selectivity CD45 [3]: >25

Structure (SMILES): O=P(O)(O)[C@H](O)c1ccc(-c2cccc([C@H](O)c3ccc(Cl)c(Cl)c3)c2)cc1 [12t, ((S)-(3'-((S)-(3,4-dichlorophenyl)(hydroxy)methyl)-[1,1'-biphenyl]-4-yl)(hydroxy)methyl)phosphonic Acid]
- selectivity MKP5 [4]: >65
- phosphorylation levels of STEP substrates GluN2B, Pyk2 and ERK1/2 [5]: more modest effects

Structure (SMILES): O=P(O)(O)[C@H](O)c1ccc(-c2cccc([C@@H](O)c3ccc(Cl)c(Cl)c3)c2)cc1 [12s, ((S)-(3'-((R)-(3,4-dichlorophenyl)(hydroxy)methyl)-[1,1'-biphenyl]-4-yl)(hydroxy)methyl)phosphonic Acid]
- ability to passively permeate the blood-brain barrier [6]: did not possess the ability to passively cross the BBB
- phosphorylation levels of STEP substrates GluN2B, Pyk2 and ERK1/2 [5]: Clear increases in the phosphorylation levels
